Measured values from patent publication US20050049197A1, “Induction of immune response against desired determinants” (Epimmune Inc., priority 1993, published 2005).
Non-standard residues stand in square brackets, D forms with d. Residues, ends and D or L forms follow the SMILES beside them. Cha = N[C@@H](CC1CCCCC1)C(=O)O

Tests used:
DR2w2b = system: DR2w2b; design: species or system human; settings: read-out: Binding Activity DR2wB2, IC50
DRw53 = DRw53 (Homo sapiens, UniProt P01903+P13762); experiment: biochemical; type: binding
DRw53, sequence (P01903 26-254): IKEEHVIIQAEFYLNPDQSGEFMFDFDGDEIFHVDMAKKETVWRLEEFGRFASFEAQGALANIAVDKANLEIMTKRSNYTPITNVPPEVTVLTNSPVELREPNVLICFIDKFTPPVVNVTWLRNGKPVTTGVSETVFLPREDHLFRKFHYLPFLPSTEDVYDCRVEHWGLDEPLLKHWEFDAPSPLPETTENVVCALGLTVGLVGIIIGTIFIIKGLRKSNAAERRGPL
DRw53, sequence (P13762 30-266): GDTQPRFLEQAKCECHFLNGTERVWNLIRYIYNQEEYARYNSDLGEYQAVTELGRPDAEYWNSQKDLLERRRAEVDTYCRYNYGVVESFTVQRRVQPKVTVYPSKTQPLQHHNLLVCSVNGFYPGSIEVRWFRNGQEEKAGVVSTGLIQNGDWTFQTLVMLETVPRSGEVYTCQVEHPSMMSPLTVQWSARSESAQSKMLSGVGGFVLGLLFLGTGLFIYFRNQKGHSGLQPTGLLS

DQ3.1 = system: DQ3.1; design: species or system human; settings: read-out: Binding Activity DQ3.1, IC50
[1] = system: PBMC from normal individuals; experiment: In vitro T cell proliferative responses of human PBMC ([3H]thymidine incorporation); type: cell-based; settings: for AVERAGE S.I. / AVERAGE ΔMAX CPM: average of 5 donors; for X144 (Δmax cpm) / X144 S.I.: donor X144; for X162 (Δmax cpm) / X162 S.I.: donor X162; for X349 (Δmax cpm) / X349 S.I.: donor X349; for X372 (Δmax cpm) / X372 S.I.: donor X372; for X460 (Δmax cpm) / X460 S.I.: donor X460
DR3 = system: DR3; design: species or system human; settings: read-out: Binding Activity DR3, IC50
DR5 = system: DR5; design: species or system human; settings: read-out: Binding Activity DR5, IC50
P. yoelii sporozoites = experiment: Inhibition of liver stage development assay (ILSDA), mouse hepatocytes infected with P. yoelii sporozoites; type: cell-based; settings: sera of immunized mice, dilution not stated
Description: In certain experiments, peptides were emulsified in complete Freund's adjuvant (CFA) and injected subcutaneously (S.C.) at the base of the tail in 100 μl volume containing 100 μg of peptide. Mice were boosted with 100 μg of peptide emulsified in 100 μl of incomplete Freund's adjuvant (IFA) 1 month later. Mice were bled just prior to boosting, and 2 weeks after boosting.
All cell culture reagents were obtained from quality Biological, Gaithersburg, Md. The slides were incubated overnight at 37° C. in a 5% CO2/95% air environment. The medium was changed the following day and fresh medium containing dexamethasone (7×10^−5) was added to the cultures.
The 17XNL (nonlethal) strain of P. yoelii or the NF54 strain of P. falciparum were used for murine and human hepatocyte in vitro infections, respectively.
Briefly, 25 μl of the serum samples, diluted to 2× their final concentration, were added to triplicate chamber-slide wells. P. yoeilli or P. falciparum sporozoites, 75,000/well, were then added in a volume of 25 μl to the mouse or human hepatocyte cultures respectively. The cultures were incubated for 3 h, then washed extensively with fresh medium to remove unattached sporozoites. The infected hepatocytes were then incubated for a further 2 (P. yoelii) or 5 days (P. falciparum) with the medium being changed each day of culture. The slides were fixed and immunostained with either a P. yoelii- or P. falciparum-specific monoclonal antibody. Schizonts were counted from the triplicate cultures and the percent inhibition determined as follows: control−test/control×100. Sera from mice injected with CFA (first dose) and IFA (second and third doses) served as the negative controls.

## CC(C)C[C@H](NC(=O)[C@@H](NC(=O)[C@H](Cc1c[nH]c2ccccc12)NC(=O)[C@H](C)NC(=O)[C@H](C)NC(=O)[C@@H](NC(=O)[C@H](CC1CCCCC1)NC(=O)[C@H](CCCCN)NC(=O)[C@H](C)N)C(C)C)[C@@H](C)O)C(=O)N[C@@H](CCCCN)C(=O)N[C@@H](C)C(=O)N[C@@H](C)C(=O)N[C@@H](C)C(N)=O [965.17]
DR2w2b
  IC50: 0.0059 µM
DRw53
  IC50: 0.17 µM
DQ3.1
  IC50: > 10 µM
[1]; 2nd Stimulation
  AVERAGE S.I.: 2.4
  AVERAGE ΔMAX CPM: 12738 cpm
  X144 (Δmax cpm): 17391 cpm
  X144 S.I.: 1.7
  X162 (Δmax cpm): 6323 cpm
  X162 S.I.: 2
  X349 (Δmax cpm): 26512 cpm
  X349 S.I.: 5.6
  X372 (Δmax cpm): 8471 cpm
  X372 S.I.: 1.3
  X460 (Δmax cpm): 4994 cpm
  X460 S.I.: 1.3
[1]; 3rd Stimulation
  AVERAGE S.I.: 3.5
  AVERAGE ΔMAX CPM: 25399 cpm
  X144 (Δmax cpm): 32665 cpm
  X144 S.I.: 4.1
  X162 (Δmax cpm): 28065 cpm
  X162 S.I.: 4.1
  X349 (Δmax cpm): 31983 cpm
  X349 S.I.: 4
  X372 (Δmax cpm): 30661 cpm
  X372 S.I.: 3.2
  X460 (Δmax cpm): 3619 cpm
  X460 S.I.: 2.2

## CC(C)C[C@H](NC(=O)[C@@H](NC(=O)[C@H](Cc1ccc(O)cc1)NC(=O)[C@H](C)NC(=O)[C@H](C)NC(=O)[C@@H](NC(=O)[C@H](CC1CCCCC1)NC(=O)[C@H](CCCCN)NC(=O)[C@@H](C)N)C(C)C)[C@@H](C)O)C(=O)N[C@@H](CCCCN)C(=O)N[C@@H](C)C(=O)N[C@@H](C)C(=O)N[C@H](C)C(N)=O [965.09]
DR2w2b
  IC50: 0.0074 µM
DR3
  IC50: 0.25 µM
DR5
  IC50: 0.0054 µM
DRw53
  IC50: 0.0864 µM
DQ3.1
  IC50: > 10 µM
[1]; 2nd Stimulation
  AVERAGE S.I.: 1.9
  AVERAGE ΔMAX CPM: 12059 cpm
  X144 (Δmax cpm): 13693 cpm
  X144 S.I.: 1.8
  X162 (Δmax cpm): 10710 cpm
  X162 S.I.: 1.1
  X349 (Δmax cpm): 18079 cpm
  X349 S.I.: 3.8
  X372 (Δmax cpm): 17813 cpm
  X372 S.I.: 1.6
  X460 (Δmax cpm): 0 cpm
  X460 S.I.: 1
[1]; 3rd Stimulation
  AVERAGE S.I.: 4.1
  AVERAGE ΔMAX CPM: 22599 cpm
  X144 (Δmax cpm): 14087 cpm
  X144 S.I.: 2.6
  X162 (Δmax cpm): 35635 cpm
  X162 S.I.: 5.2
  X349 (Δmax cpm): 31811 cpm
  X349 S.I.: 5.5
  X372 (Δmax cpm): 29159 cpm
  X372 S.I.: 4.4
  X460 (Δmax cpm): 2301 cpm
  X460 S.I.: 2.9

## CC(C)C[C@H](NC(=O)[C@@H](NC(=O)[C@H](Cc1c[nH]c2ccccc12)NC(=O)[C@H](C)NC(=O)[C@H](C)NC(=O)[C@@H](NC(=O)[C@H](CC1CCCCC1)NC(=O)[C@H](CCCCN)NC(=O)[C@@H](C)N)C(C)C)[C@@H](C)O)C(=O)N[C@@H](CCCCN)C(=O)N[C@@H](C)C(=O)N[C@H](C)C(=O)N[C@@H](CCC(N)=O)C(=O)NCC(=O)N1CCC[C@H]1C(=O)NCC(=O)N[C@@H](C)C(=O)N1CCC[C@H]1C(=O)N[C@@H](CCC(N)=O)C(=O)NCC(=O)N1CCC[C@H]1C(=O)NCC(=O)N[C@@H](C)C(=O)N1CCC[C@H]1C(=O)N[C@@H](CCC(N)=O)C(=O)NCC(=O)N1CCC[C@H]1C(=O)NCC(=O)N[C@@H](C)C(=O)N1CCC[C@H]1C(=O)N[C@@H](CCC(N)=O)C(=O)NCC(=O)N1CCC[C@H]1C(=O)NCC(=O)N[C@@H](C)C(=O)N1CCC[C@H]1C(=O)NCC(=O)NCC(=O)N[C@@H](CO)C(=O)O [PADRE ®-PyB, aKXVAAWTLKAa(QGPGAP)4GGS] (H-[dA]K[Cha]VAAWTLKA[dA]QGPGAPQGPGAPQGPGAPQGPGAPGGS-OH; N-terminus and C-terminus assumed)
P. yoelii sporozoites
  inhibition of P. yoelii sporozoite invasion and development in murine hepatocytes: approximately 90%

## CC(C)C[C@H](NC(=O)[C@@H](NC(=O)[C@H](C)NC(=O)[C@H](C)NC(=O)[C@H](C)NC(=O)[C@@H](NC(=O)[C@H](CC1CCCCC1)NC(=O)[C@H](CCCCN)NC(=O)[C@@H](C)N)C(C)C)[C@@H](C)O)C(=O)N[C@@H](CCCCN)C(=O)N[C@@H](C)C(=O)N[C@@H](C)C(=O)N[C@H](C)C(N)=O [965.16]
DR2w2b
  IC50: 0.0061 µM
DR5
  IC50: 0.0167 µM
DQ3.1
  IC50: > 10 µM
[1]; 2nd Stimulation
  AVERAGE S.I.: 1.3
  AVERAGE ΔMAX CPM: 1843 cpm
  X144 (Δmax cpm): 4388 cpm
  X144 S.I.: 1.2
  X162 (Δmax cpm): 4090 cpm
  X162 S.I.: 2.1
  X349 (Δmax cpm): 0 cpm
  X349 S.I.: 1
  X372 (Δmax cpm): 736 cpm
  X372 S.I.: 1
  X460 (Δmax cpm): 0 cpm
  X460 S.I.: 1
[1]; 3rd Stimulation
  AVERAGE S.I.: 1.5
  AVERAGE ΔMAX CPM: 5955 cpm
  X144 (Δmax cpm): 5220 cpm
  X144 S.I.: 1.5
  X162 (Δmax cpm): 4762 cpm
  X162 S.I.: 1.9
  X349 (Δmax cpm): 9316 cpm
  X349 S.I.: 1.6
  X372 (Δmax cpm): 10439 cpm
  X372 S.I.: 1.7
  X460 (Δmax cpm): 37 cpm
  X460 S.I.: 1

## CC(C)C[C@H](NC(=O)[C@@H](NC(=O)[C@H](CC(N)=O)NC(=O)[C@H](C)NC(=O)[C@H](C)NC(=O)[C@@H](NC(=O)[C@H](CC1CCCCC1)NC(=O)[C@H](CCCCN)NC(=O)[C@@H](C)N)C(C)C)[C@@H](C)O)C(=O)N[C@@H](CCCCN)C(=O)N[C@@H](C)C(=O)N[C@@H](C)C(=O)N[C@H](C)C(N)=O [965.08]
DR2w2b
  IC50: 0.0038 µM
DR3
  IC50: 0.25 µM
DR5
  IC50: 0.008 µM
DQ3.1
  IC50: > 10 µM
[1]; 2nd Stimulation
  AVERAGE S.I.: 1.7
  AVERAGE ΔMAX CPM: 11208 cpm
  X144 (Δmax cpm): 8440 cpm
  X144 S.I.: 1.3
  X162 (Δmax cpm): 9234 cpm
  X162 S.I.: 2.6
  X349 (Δmax cpm): 9065 cpm
  X349 S.I.: 1.8
  X372 (Δmax cpm): 23017 cpm
  X372 S.I.: 1.6
  X460 (Δmax cpm): 6286 cpm
  X460 S.I.: 1.4
[1]; 3rd Stimulation
  AVERAGE S.I.: 2
  AVERAGE ΔMAX CPM: 12070 cpm
  X144 (Δmax cpm): 3559 cpm
  X144 S.I.: 1.4
  X162 (Δmax cpm): 14622 cpm
  X162 S.I.: 2.3
  X349 (Δmax cpm): 31639 cpm
  X349 S.I.: 2.8
  X372 (Δmax cpm): 8710 cpm
  X372 S.I.: 1.9
  X460 (Δmax cpm): 1820 cpm
  X460 S.I.: 1.6

## CC(C)C[C@H](NC(=O)[C@@H](NC(=O)[C@H](Cc1c[nH]cn1)NC(=O)[C@H](C)NC(=O)[C@H](C)NC(=O)[C@@H](NC(=O)[C@H](CC1CCCCC1)NC(=O)[C@H](CCCCN)NC(=O)[C@@H](C)N)C(C)C)[C@@H](C)O)C(=O)N[C@@H](CCCCN)C(=O)N[C@@H](C)C(=O)N[C@@H](C)C(=O)N[C@H](C)C(N)=O [965.15]
DR2w2b
  IC50: 0.0054 µM
DR3
  IC50: 1.39 µM
DR5
  IC50: 0.0299 µM
DRw53
  IC50: 0.0792 µM
DQ3.1
  IC50: > 10 µM
[1]; 2nd Stimulation
  AVERAGE S.I.: 1.8
  AVERAGE ΔMAX CPM: 7920 cpm
  X144 (Δmax cpm): 7179 cpm
  X144 S.I.: 1.4
  X162 (Δmax cpm): 8461 cpm
  X162 S.I.: 3.4
  X349 (Δmax cpm): 10848 cpm
  X349 S.I.: 1.8
  X372 (Δmax cpm): 10011 cpm
  X372 S.I.: 1.3
  X460 (Δmax cpm): 3100 cpm
  X460 S.I.: 1.2
[1]; 3rd Stimulation
  AVERAGE S.I.: 2.5
  AVERAGE ΔMAX CPM: 15462 cpm
  X144 (Δmax cpm): 13055 cpm
  X144 S.I.: 2.4
  X162 (Δmax cpm): 12309 cpm
  X162 S.I.: 1.6
  X349 (Δmax cpm): 20653 cpm
  X349 S.I.: 2.4
  X372 (Δmax cpm): 30810 cpm
  X372 S.I.: 4.7
  X460 (Δmax cpm): 486 cpm
  X460 S.I.: 1.2
